From patent publication US20230391725A1, “MODULATORS OF THE INTEGRATED STRESS RESPONSE PATHWAY” (Evotec International GmbH, priority 2020, published 2023)

system: ATF4; assay: HEK-ATF4 High Content Imaging assay (prevention of Tunicamycin induced ISR); type: cell-based; conditions: Homo sapiens, Wild-type HEK293 cells, 6 h incubation, ATF4 signal ratio between nucleus and cytoplasm
Description: Example compounds were tested in the HEK-ATF4 High Content Imaging assay to assess their pharmacological potency to prevent Tunicamycin induced ISR. Wild-type HEK293 cells were plated in 384-well imaging assay plates at a density of 12,000 cells per well in growth medium (containing DMEM/F12, 10% FBS, 2 mM L-Glutamine, 100 U/mL Penicillin—100 μg/mL Streptomycin) and incubated at 37° C., 5% CO2. 24 h later, the medium was changed to 50 μL assay medium per well (DMEM/F12, 0.3% FBS, 2mM L-Glutamine, 100 U/mL Penicillin—100 μg/mL Streptomycin). Example compounds were serially diluted in DMSO, spotted into intermediate plates and prediluted with assay medium containing 3.3 […] Tunicamycin to give an 11-fold excess of final assay concentration. In addition to the example compound testing area, the plates also contained multiples of control wells for assay normalization purposes, wells containing Tunicamycin but no example compounds (High control), as well as wells containing neither example compound nor Tunicamycin (Low control). The assay was started by transferring 5 μL from the intermediate plate into the assay plates, followed by incubation for 6 h at 37° C., 5% CO2. Subsequently, cells were fixed (4% PFA in PBS, 20 min at r.t.) and submitted to indirect ATF4 immunofluorescence staining (primary antibody rabbit anti ATF4, clone D4B8, Cell Signaling Technologies; secondary antibody Alexa Fluor 488 goat anti-rabbit IgG (H+L), Thermofisher Scientific). Nuclei were stained using Hoechst dye (Thermofisher Scientific), and plates were imaged on an Opera Phenix High Content imaging platform equipped with 405 nm and 488 nm excitation. Finally, images were analyzed using script based algorithms. The main readout HEK-ATF4 monitored the ATF4 signal ratio between nucleus and cytoplasm. Tunicamycin induced an increase in the overall ATF4 ratio signal, which was prevented by ISR modulating example compounds. In addition, HEK-CellCount readout was derived from counting the number of stained nuclei corresponding to healthy cells. This readout served as an internal toxicity control.

Compound	IC50 [nM]
O=C(COc1ccc(Cl)c(F)c1)N[C@H]1CC[C@H](C(=O)Nc2cc(C(F)(F)F)cc(C(F)(F)F)c2)NC1 [Example 33, (2R,5S)-N-[3,5-bis(trifluoromethyl)phenyl]-5-[2-(4-chloro-3-fluorophenoxy)acetamido]piperidine-2-carboxamide]	500 to 2000
O=C(COc1ccc(Cl)c(F)c1)N[C@H]1CC[C@H](C(=O)Nc2ccn(C(F)(F)F)n2)NC1 [Example 34, (2R,5S)-5-[2-(4-chloro-3-fluorophenoxy)acetamido]-N-[1-(trifluoromethyl)-1H-pyrazol-3-yl]piperidine-2-carboxamide]	500 to 2000
O=C(COc1ccc(Cl)c(F)c1)N[C@H]1CC[C@H](C(=O)Nc2cc(C(F)(F)F)ccc2F)NC1 [Example 35, (2R,5S)-5-[2-(4-chloro-3-fluorophenoxy)acetamido]-N-[2-fluoro-5-(trifluoromethyl)phenyl]piperidine-2-carboxamide]	500 to 2000
O=C(COc1ccc(Cl)c(F)c1)N[C@H]1CC[C@H](C(=O)Nc2cc(C(F)(F)F)ccn2)NC1 [Example 38, (2R,5S)-5-[2-(4-chloro-3-fluorophenoxy)acetamido]-N-[4-(trifluoromethyl)pyridin-2-yl]piperidine-2-carboxamide]	500 to 2000
O=C(COc1ccc(Cl)c(F)c1)N[C@H]1CC[C@H](C(=O)NCc2cc(C(F)(F)F)on2)NC1 [Example 43, (2R,5S)-5-[2-(4-chloro-3-fluorophenoxy)acetamido]-N-{[5-(trifluoromethyl)-1,2-oxazol-3-yl]methyl}piperidine-2-carboxamide]	500 to 2000
O=C(COc1ccc(Cl)c(F)c1)N[C@H]1CC[C@H](C(=O)NCc2cc(C(F)(F)F)ccn2)NC1 [Example 44, (2R,5S)-5-[2-(4-chloro-3-fluorophenoxy)acetamido]-N-{[4-(trifluoromethyl)pyridin-2-yl]methyl}piperidine-2-carboxamide]	2000 to 15000
O=C(COc1ccc(Cl)c(F)c1)N[C@H]1CC[C@H](C(=O)N2CCc3c2cccc3C(F)(F)F)NC1 [Example 45, 2-(4-chloro-3-fluorophenoxy)-N-[(3S,6R)-6-[4-(trifluoromethyl)-2,3-dihydro-1H-indole-1-carbonyl]piperidin-3-yl]acetamide]	2000 to 15000
O=C(COc1ccc(Cl)c(F)c1)N[C@H]1CC[C@H](C(=O)Nc2ccn(C3CC3(F)F)n2)NC1 (stereo partly drawn) [Example 46, (2R,5S)-5-[2-(4-chloro-3-fluorophenoxy)acetamido]-N-[1-(2,2-difluorocyclopropyl)-1H-pyrazol-3-yl]piperidine-2-carboxamide]	2000 to 15000
O=C(COc1ccc(Cl)c(F)c1)N[C@H]1CC[C@H](C(=O)NC2CCC(OC(F)(F)F)C2)NC1 (stereo partly drawn) [Example 47, (2R,5S)-5-[2-(4-chloro-3-fluorophenoxy)acetamido]-N-[3-(trifluoromethoxy)cyclopentyl]piperidine-2-carboxamide]	500 to 2000
CN1C[C@@H](NC(=O)COc2ccc(Cl)c(F)c2)CC[C@@H]1C(=O)Nc1cncc(C(F)(F)F)n1 [Example 52, (2R,5S)-5-[2-(4-chloro-3-fluorophenoxy)acetamido]-1-methyl-N-[6-(trifluoromethyl)pyrazin-2-yl]piperidine-2-carboxamide]	1 to 500

Continued, values first:

IC50 [nM]	Compound
1 to 500	O=C(COc1ccc(Cl)c(F)c1)N[C@H]1CC[C@H](C(=O)Nc2cccc(C(F)(F)F)c2F)NC1 [Example 36, (2R,5S)-5-[2-(4-chloro-3-fluorophenoxy)acetamido]-N-[2-fluoro-3-(trifluoromethyl)phenyl]piperidine-2-carboxamide]
1 to 500	O=C(COc1ccc(Cl)c(F)c1)N[C@H]1CC[C@H](C(=O)Nc2cccc(OC(F)(F)F)n2)NC1 [Example 37, (2R,5S)-5-[2-(4-chloro-3-fluorophenoxy)acetamido]-N-[6-(trifluoromethoxy)pyridin-2-yl]piperidine-2-carboxamide]
1 to 500	O=C(COc1ccc(Cl)c(F)c1)N[C@H]1CC[C@H](C(=O)Nc2ccc3c(c2)OC(F)(F)O3)NC1 [Example 39, (2R,5S)-5-[2-(4-chloro-3-fluorophenoxy)acetamido]-N-(2,2-difluoro-2H-1,3-benzodioxol-5-yl)piperidine-2-carboxamide]
1 to 500	O=C(COc1ccc(Cl)c(F)c1)N[C@H]1CC[C@H](C(=O)N2Cc3ccc(C(F)(F)F)cc3C2)NC1 [Example 40, 2-(4-chloro-3-fluorophenoxy)-N-[(3S,6R)-6-[5-(trifluoromethyl)-2,3-dihydro-1H-isoindole-2-carbonyl]piperidin-3-yl]acetamide]
1 to 500	O=C(COc1ccc(Cl)c(F)c1)N[C@H]1CC[C@H](C(=O)N2Cc3ccc(OC(F)(F)F)cc3C2)NC1 [Example 41, 2-(4-chloro-3-fluorophenoxy)-N-[(3S,6R)-6-[5-(trifluoromethoxy)-2,3-dihydro-1H-isoindole-2-carbonyl]piperidin-3-yl]acetamide]
1 to 500	Cn1nc(CNC(=O)[C@H]2CC[C@H](NC(=O)COc3ccc(Cl)c(F)c3)CN2)cc1C(F)(F)F [Example 42, (2R,5S)-5-[2-(4-chloro-3-fluorophenoxy)acetamido]-N-{[1-methyl-5-(trifluoromethyl)-1H-pyrazol-3-yl]methyl}piperidine-2-carboxamide]
1 to 500	O=C(COc1ccc(Cl)c(F)c1)N[C@H]1CC[C@H](C(=O)Nc2ccnc(C(F)(F)F)n2)NC1 [Example 49, (2R,5S)-5-[2-(4-chloro-3-fluorophenoxy)acetamido]-N-[2-(trifluoromethyl)pyrimidin-4-yl]piperidine-2-carboxamide]
1 to 500	O=C(COc1ccc(Cl)c(F)c1)N[C@H]1CC[C@H](C(=O)Nc2cncc(C(F)(F)F)n2)NC1 [Example 51, (2R,5S)-5-[2-(4-chloro-3-fluorophenoxy)acetamido]-N-[6-(trifluoromethyl)pyrazin-2-yl]piperidine-2-carboxamide]
